Values of other authors, collected in publication PMC8513424 (Laryngoscope Investigative Otolaryngology, 2021).

Key:
[1] = system: isogenic VS‐ and meningioma‐related cell lines with or without NF2 expression; details: among 19 small molecules; cited from earlier work
meningiomas = details: cited from earlier work

Compound	Activity across schwannoma and meningioma cell models [1]	Response of meningiomas (meningiomas)
COc1ccc(-c2nc(N3CCOCC3)c3sc(CN(C)c4ncc(C(=O)NO)cn4)cc3n2)cn1 [CUDC‐907]	greatest activity	–
Cc1[nH]c2ccccc2c1CCNCc1ccc(/C=C/C(=O)NO)cc1 [panobinostat]	greatest activity	–
bevacizumab	–	do not respond
